Results as given in publication PMC10380385, “Synthesis, In Vitro, and In Vivo Investigations of Pterostilbene-Tethered Analogues as Anti-Breast Cancer Candidates” (International Journal of Molecular Sciences, 2023).
“And” between values parts separate entries of the source, which are not always exact repeats. Equal entries are not always repeated.

What was measured:
[1] = test system: MCF-10A (human breast epithelial cell line); assay: Cytotoxic activity against MCF-10A; assay type: cell-based; conditions: cytotoxicity, normal breast epithelial cells
Experimental: (§1) The in vitro anti-proliferative activity of all synthesized analogues against MDA-MB-231 and MCF-7 cells was tested using the 3-(4,5-dimethylthiazol-2-yl)-[…] (MTT) method. […] Usually, Dox has been used as a positive control in many basic studies, especially drug screening assay. […] In the meantime, the cytotoxic activity of 2K–2N, PTE, and Dox against MCF-10A (human breast epithelial cell line) was examined. […] By contrast, the substitution of a saturated six-membered nitrogen heterocyclic ring on the side chain is extremely favorable for enhancing anti-BC efficacy (2L–2N vs. 1, PTE, 2A–2J). Based on the preceding analysis, analogue 2L was selected as the most promising anti-BC agent and used in the follow-up study.

[2] = test system: MCF-7 cells; assay: MTT anti-proliferative assay, MCF-7; assay type: cell-based; conditions: Homo sapiens, MCF7, 48 h
Experimental: as §1
(§2) The human breast cancer cell lines MDA-MB-231 and MCF-7 were purchased from the Chinese Academy of Science and cultured in Dulbecco’s modified Eagle’s medium (DMEM, Gibco, New York, NY, USA) containing 10% fetal bovine serum (FBS), 2 mM L-glutamine, 100 U/mL penicillin, and 100 μg/mL streptomycin. Then, the cells were maintained in a humidified incubator at 37 °C in the presence of 5% CO2.
(§3) The MTT assay was used to test the effect of PTEs on cell viability. The MDA-MB-231 (3 × 10^3 cells/well) and MCF-7 (4 × 10^3 cells/well) cells were seeded in a 96-well plate and cultured at 37 °C in a 5% CO2 incubator overnight. Afterwards, the medium was replaced with different concentrations of the title compounds (1, 3, 10, 30, and 100 μM). After incubation for 48 h, 10 μL of MTT solution (5 mg/mL) was added to each well and incubated for another 4 h. The optical density (OD) of the samples was measured using a microplate reader (Biotek, Burlington, VT, USA) at 570 nm. The inhibition rate (%) = [A570 (control) − A570 (compound)]/A570 (control) × 100%. The IC50 values were calculated using SPSS software version 17.0 (SPSS Inc., Chicago, IL, USA).

[3] = test system: MDA-MB-231 cells; assay: MTT anti-proliferative assay, MDA-MB-231; assay type: cell-based; conditions: Homo sapiens, 48 h
Experimental: as §1, §2, §3

[4] = test system: MCF-7 cells; assay: DNA content / cell cycle of PI-stained cells by flow cytometry, MCF-7; assay type: cell-based, human; conditions: MCF-7, 10.0 μM
Source text: (§4) It is commonly acknowledged that […] DNA fragmentation is a crucial hallmark of cell apoptosis. Next, we assessed the influence of 2L on the DNA content of PI-stained BC cells using flow cytometry. […] In turn, treatment with 2L led to an apparent enhancement of the number of MCF-7 cells, from 51.7% to 63.0%. […] An augmentation of DNA distribution in the SubG1 peak was representative of the occurrence of apoptosis in 2L-exposed groups, which further confirmed that 2L could induce the apoptosis of BC cells. In addition, the quantitative analysis of DNA distribution for the subG1, G0/G1, S, and G2/M phases appeared to show similar alterations (Figure 4B,D).

[5] = test system: apoptosis-related proteins in MCF-7 cells; assay: Western blot of apoptosis-related proteins, MCF-7; assay type: cell-based, human; conditions: MCF-7, 2L 1.1, 3.3, 10 μM, 24 h
Experimental: (§5) MDA-MB-231 and MCF-7 cells were cultured in a 6-well plate with the density of 3 × 10^5 cells/well and treated with different concentrations of 2L (0, 1.1, 3.3, 10 μM) for 24 h. The cells were lysed in radioimmunoprecipitation assay (RIPA) buffer (Beyotime, Shanghai, China) containing 1% protease inhibitor cocktail and 1 mM phenylmethylsulfonyl fluoride (PMSF, Sigma-Aldrich, St. Louis, MO, USA). After centrifugation, the supernatant was collected and quantified by BCA assay (Beyotime). Lysates were mixed with the loading buffer (5 ×) and denatured by boiling for 10 min. Then, the equivalent samples were separated via 10–15% sodium dodecyl–sulfate polyacrylamide gel electrophoresis (SDS-PAGE), transferred to 0.45 µm immunoblot poly(vinylidene fluoride) (PVDF) membranes (Merck Millipore, Darmstadt, Germany) at 4 °C, and blocked in 5% skimmed milk in TBST for 1 h at room temperature. The membranes were incubated overnight at 4 °C with specific primary antibodies. After washing three times with TBST, the PVDF membranes were incubated with horseradish peroxidase (HRP)-conjugated secondary antibodies at rt for 1 h. Lastly, the resulting bands were visualized by a Bio-Rad ChemiDoc imaging system ([…]) using enhanced chemiluminescence reagents (Millipore, Billerica, MA, USA). The details of the corresponding primary antibodies were as follows: Bax (2772; Cell Signaling Technology), Bcl-2 (3498; Cell Signaling Technology), cleaved caspase-3 (9661; Cell Signaling Technology), cleaved caspase-9 (9505; Cell Signaling Technology), and PARP (9542; Cell Signaling Technology). The HRP-secondary antibodies were also obtained from Cell Signaling Technology (Boston, MA, USA).

[6] = test system: MDA-MB-231 cells; assay: Intracellular ROS, DCFH-DA, MDA-MB-231; assay type: cell-based, human; conditions: MDA-MB-231, 2L 24 h, vs control
Experimental: (§6) The Reactive Oxygen Species Assay Kit was used to measure intracellular ROS levels. MDA-MB-231 and MCF-7 cells (6 × 10^4 cells/well) were seeded onto 24-well plates and treated with 2L (0, 10 μM) for 24 h. Subsequently, the cells were washed with PBS and stained with dichlorodihydrofluorescein diacetate (DCFH-DA, 10 μM) at 37 °C for 20 min in the dark. Following three washes with serum-free DMEM, the fluorescence alteration was photographed using a fluorescence microscope.
(§7) MDA-MB-231 and MCF-7 cells were plated in 6-well plates with a density of 3 × 10^5 cells/well. After exposure to 2L for 24 h, the cells were incubated with 10 μM DCFH-DA at 37 °C for 20 min in the dark. Later, the cells were slightly washed three times with serum-free DMEM and centrifuged (1000 rpm, 5 min). The collected cells were resuspended in PBS and loaded into a flow cytometer.

[7] = test system: MDA-MB-231 cells; assay: Mitochondrial membrane potential JC-1 assay, MDA-MB-231; assay type: cell-based, human; conditions: MDA-MB-231, 24 h, flow cytometry
Experimental: (§8) The MMP was assayed using a JC-1 assay kit (Beyotime, Shanghai, China) according to the manufacturer’s instructions. In brief, MDA-MB-231 and MCF-7 cells were plated in 24-well plates at a density of 6 × 10^4 cells per well. After intervention with 2L (0, 10 μM) for 24 h, the cells were washed once with PBS. Cell culture solution (0.5 mL) and JC-1 working solution (0.5 mL) were successively added, mixed well, and incubated at 37 °C for 20 min in the dark. After washing twice with 1 × JC-1 staining buffer, the cells were resuspended in fresh culture medium. The graphical results were observed under a fluorescence microscope.
(§9) MDA-MB-231 and MCF-7 cells were incubated in 6-well plates at a density of 3 × 10^5 cells per dish and exposed to 2L for 24 h. Cell culture media (1 mL) and JC-1 staining working solution (1 mL) were added, thoroughly mixed, and incubated at 37 °C for 20 min. After washing twice with 1 × JC-1 staining buffer, the cells were collected and resuspended in 500 μL JC-1 staining buffer and then instantly analyzed using a flow cytometry.

[8] = test system: MCF-7 cells; assay: Mitochondrial membrane potential JC-1 assay, MCF-7; assay type: cell-based, human; conditions: MCF-7, 24 h, flow cytometry
Experimental: as §8, §9

[9] = test system: MCF-7 cells; assay: Annexin V-FITC/PI apoptosis flow cytometry, MCF-7; assay type: cell-based, human
Experimental: (§10) MDA-MB-231 and MCF-7 cells (3 × 10^5 cells/well) were seeded into 6-well plates. After that, the cells were treated with 2L (0, 10 μM) for 24 h. Cells were harvested, washed repeatedly with cold phosphate-buffered saline (PBS), and resuspended in 195 μL of binding buffer. Then, 4 μL annexin V-FITC reagent (Beyotime) and 8 μL propidium iodide (PI, Beyotime) were added to the samples and gently mixed. After incubation for 15 min in the dark at room temperature, the stained cells were immediately detected by a FACScan flow cytometer (BD Biosciences, San Jose, CA, USA) and analyzed with the annexin V-FITC/PI apoptosis method.

[10] = test system: MDA-MB-231 cells; assay: DNA content / cell cycle of PI-stained cells by flow cytometry, MDA-MB-231; assay type: cell-based, human; conditions: MDA-MB-231, 10.0 μM
Source text: as §4

[11] = test system: MCF-7 cells; assay: Intracellular ROS, DCFH-DA, MCF-7; assay type: cell-based, human; conditions: MCF-7, 2L 24 h, vs control
Experimental: as §6, §7

[12] = test system: MDA-MB-231 cells; assay: Annexin V-FITC/PI apoptosis flow cytometry, MDA-MB-231; assay type: cell-based, human
Experimental: as §10

[13] = test system: apoptosis-related proteins in MDA-MB-231 cells; assay: Western blot of apoptosis-related proteins, MDA-MB-231; assay type: cell-based, human; conditions: MDA-MB-231, 2L 1.1, 3.3, 10 μM, 24 h
Experimental: as §5

[14] = test system: MDA-MB-231 xenograft; assay: MDA-MB-231-derived xenograft mouse model; assay type: in vivo; conditions: for tumor growth inhibition (TGI): intraperitoneal, every other day, 10 treatments, by tumor weight
Experimental: BALB/c nude mice (female, 6–7 weeks) were purchased from Changsheng Biotechnology Co., Ltd. (Liaoning, China). MDA-MB-231 cells (5 × 10^6 cells/mouse) were injected subcutaneously into the right back of the nude mice. When the tumor volume reached approximately 55 mm^3, the female mice were randomly divided into two treatment groups (25, 50 mg/kg) and a vehicle group (equal volume of normal saline) with five mice in each group. Throughout the experiment, 2L and saline were intraperitoneally injected every other day for 10 treatments. At the same time, the changes in tumor volume and body weight of the nude mice were tracked and recorded. The tumor volumes were assessed using the formula: V (mm^3) = (length × width^2)/2. At the end of the experimental period, tumor tissues were harvested, weighed, and collected. The TGI rate was calculated by the average tumor weight of the 2L-treated and control groups.

## COc1cc(/C=C/c2ccc(O)cc2)cc(OC)c1 [PTE, 3,5-dimethoxy-4′-hydroxy-trans-stilbene, reference compound]
[1]
  IC50: > 100 µM
[2]
  IC50: 44.3 ± 0.48 µM
[3]
  IC50: 63.59 ± 0.4 µM

## COc1cc(/C=C/c2ccc(OCCCN3CCOCC3)cc2)cc(OC)c1 [Compound 2M, (E)-4-(3-(4-(3,5-dimethoxystyryl)phenoxy)propyl)morpholine]
[1]
  IC50: 70.39 ± 0.43 µM
[2]
  IC50: 42 ± 0.79 µM
[3]
  IC50: 49.3 ± 2.48 µM

## COc1cccc2c1C(=O)c1c(O)c3c(c(O)c1C2=O)C[C@@](O)(C(=O)CO)C[C@@H]3O[C@H]1C[C@H](N)[C@H](O)[C@H](C)O1 [Dox, Doxorubicin, reference compound]
[1]
  IC50: 2.27 ± 0.19 µM
[2]
  IC50: 3.57 ± 0.41 µM
[3]
  IC50: 2.3 ± 0.32 µM

## COc1cc(/C=C/c2ccc(OCCCn3ccnc3)cc2)cc(OC)c1 [Compound 2K, (E)-1-(3-(4-(3,5-dimethoxystyryl)phenoxy)propyl)-1H-imidazole]
[1]
  IC50: 49 ± 1.31 µM
[2]
  IC50: 21 ± 0.56 µM
[3]
  IC50: 18.7 ± 0.71 µM

## COc1cc(/C=C/c2ccc(OCCCN3CCN(C)CC3)cc2)cc(OC)c1 [Compound 2N, (E)-1-(3-(4-(3,5-dimethoxystyryl)phenoxy)propyl)-4-methylpiperazine]
[1]
  IC50: 37.3 ± 0.96 µM
[2]
  IC50: 18.1 ± 0.55 µM
[3]
  IC50: 17.7 ± 0.81 µM

## COc1cc(/C=C/c2ccc(OCCCN3CCCCC3)cc2)cc(OC)c1 [Compound 2L, (E)-1-(3-(4-(3,5-dimethoxystyryl)phenoxy)propyl)piperidine]
[4]
  percentage of cells in subG1: 7.83%
  proportion of cells in G0/G1 phase: 63.0%
[5]
  expression of Bcl-2: markedly downregulated
  level of Bax: upregulated
  protein expression of cleaved caspase-3: increase
  protein expression of cleaved caspase-9: increase
  protein level of cleaved PARP: effectively elevate
[6]
  mean ROS-associated fluorescence intensity: greatly increased
[7]
  ΔΨm level after 2L: 83.9%
[1]
  IC50: 68.9 ± 0.93 µM
[8]
  ΔΨm level after 2L: 85.0%
[2]
  IC50: 11.7 ± 0.55 µM
[9]; MCF-7, 2L 10 μM + 5 mM NAC
  apoptosis ratio with NAC: 6.7%
[9]; MCF-7, 2L 10 μM + Z-VAD-FMK 20 μM
  apoptosis ratio with Z-VAD-FMK: 6.5%
[9]; MCF-7, 2L 10 μM, 24 h
  apoptotic percentage (early and late): 14.0% and 14.5% and 12.2%
[10]
  percentage of cells in subG1: 7.99%
  proportion of cells in G0/G1 phase: 61.7%
[11]
  mean ROS-associated fluorescence intensity: greatly increased
[12]; MDA-MB-231, 2L 10 μM + 5 mM NAC
  apoptosis ratio with NAC: 8.8%
[12]; MDA-MB-231, 2L 10 μM + Z-VAD-FMK 20 μM
  apoptosis ratio with Z-VAD-FMK: 6.2%
[12]; MDA-MB-231, 2L 10 μM, 24 h
  apoptotic percentage (early and late): 12.7% and 16.1% and 13.1%
[13]
  expression of Bcl-2: markedly downregulated
  level of Bax: upregulated
  protein expression of cleaved caspase-3: increase
  protein expression of cleaved caspase-9: increase
  protein level of cleaved PARP: effectively elevate
[14]; 25 mg/kg
  tumor growth inhibition (TGI): 42.0%
[14]; 50 mg/kg
  tumor growth inhibition (TGI): 69.9%
[14]; 25 and 50 mg/kg, whole study
  toxicity in nude mice (body weight fluctuation): no obvious toxicity
[14]; Western blot, vs control group
  level of Bcl-2 protein in tumor tissues: decreased
  protein expression of Bax in tumor tissues: noticeably increased
  protein expression of cleaved PARP in tumor tissues: noticeably increased
[3]
  IC50: 10.4 ± 0.4 µM
